Results as given in patent US9879024B2, “Crystal forms of (R)-N-methylnaltrexone bromide and uses thereof” (Progenics Pharmaceuticals, Inc., priority 2007, dated 2018).

What was measured:
Format in all cases: physicochemical
[1] = Water solubility of amorphous Compound 1; settings: qualitative statement, no data given
[2] = Solubility of Form A at 37° C. under conditions that simulate the human GI tract (HPLC of filtrate); settings: thermodynamic from solid, 37° C. overnight
Method: […] All solutions were stored overnight in a 37° C. oven, and then filtered through a Whatman 0.45 μm nylon syringe filter to remove insoluble material.

[3] = Equilibrium solubility of Form A at room temperature in solvents and aqueous buffers; settings: thermodynamic from solid, read-out: Solubility at R.T.
Method: In each case, the equilibrium solubility of Form A at room temperature was measured by placing the compound in excess into different solvents and stirring overnight at ambient room temperature, protected from light. Solubility in the following solvents and aqueous buffers was evaluated at room temperature: methanol, ethanol, benzyl alcohol, dimethyl sulfoxide, water for injection, bacteriostatic water (containing 0.9% benzyl alcohol), 5% dextrose, normal saline (0.9% NaCl), pH 1.1 (glycine HCl), pH 4.2 (glycine HCl), pH 7.1 (phosphate buffer), and pH 9.1 (glycine). Solubilities are reported to the nearest mg/mL unless otherwise stated.

Compound | water solubility [1] | solubility ([2]; aqueous buffer, pH 4.5 (acetate buffer)) | solubility ([2]; aqueous buffer, pH 6.8 (phosphate buffer)) | solubility ([2]; aqueous buffer, pH 9.0 (borate buffer)) | solubility ([2]; pH 1, simulated gastric fluid, 0.1N HCl) | solubility ([3]; aqueous buffer, pH 4.2 (glycine HCl buffer)) | solubility ([3]; aqueous buffer, pH 7.1 (phosphate buffer)) | solubility ([3]; aqueous buffer, pH 9.1 (glycine buffer)) | solubility ([3]; dimethyl sulfoxide, organic solvent or mixture, Dimethylsulfoxide, stirred overnight) | solubility ([3]; organic solvent or mixture, Benzyl alcohol, stirred overnight) | solubility ([3]; organic solvent or mixture, Ethanol, stirred overnight) | solubility ([3]; organic solvent or mixture, Methanol, stirred overnight) | solubility ([3]; saline or isotonic, 5% Dextrose, stirred overnight) | solubility ([3]; saline or isotonic, Normal saline (0.9% NaCl), stirred overnight) | solubility ([3]; simulated gastric fluid, 0.1N HCl) | solubility ([3]; simulated gastric fluid, pH 1.1 (glycine HCl buffer)) | solubility ([3]; Bacteriostatic water (0.9% benzyl alcohol), stirred overnight) | solubility ([3]; Water for injection, stirred overnight)
C[N+]1(CC2CC2)CC[C@]23c4c5ccc(O)c4O[C@H]2C(=O)CC[C@@]3(O)[C@H]1C5.[Br-] (stereo partly drawn) [amorphous Compound 1, (R)-N-methylnaltrexone bromide] | enhanced water solubility |  |  |  |  |  |  |  |  |  |  |  |  |  |  |  |  | 
C[N+]1(CC2CC2)CC[C@]23c4c5ccc(O)c4O[C@H]2C(=O)CC[C@@]3(O)[C@H]1C5.[Br-] (stereo partly drawn) [Form A, (R)-N-methylnaltrexone bromide] |  | 100 mg/mL | 101 mg/mL | 101 mg/mL | 101 mg/mL | 73.8 mg/mL | 74.9 mg/mL | 71.1 mg/mL | > 170 mg/mL | 85.5 mg/mL | 6.1 mg/mL | 2.5 mg/mL | 61.3 mg/mL | 59.7 mg/mL | 76.6 mg/mL | 70.1 mg/mL | 86.5 mg/mL | 73.5 mg/mL
